# Experimental data as given in ChEMBL document CHEMBL5537164, “Discovery of Potent, Orally Bioavailable, Tricyclic NLRP3 Inhibitors” (J Med Chem, 2024).
# Tests used:
# [1] = Volume of distribution at steady state in C57BL/6 mouse at 3 mg/kg, po or 1 mg/kg, iv measured after 24 hrs by LC-MS/MS analysis; format: ADME, organism-based; conditions: in vivo
# [2] = Dose normalized AUC in C57BL/6 mouse at 3 mg/kg, po measured after 24 hrs by LC-MS/MS analysis; format: ADME, organism-based; conditions: in vivo
# [3] = Oral bioavailability in C57BL/6 mouse at 3 mg/kg measured after 24 hrs by LC-MS/MS analysis; format: ADME, organism-based; conditions: in vivo
# [4] = Volume of distribution at steady state in Sprague-Dawley rat at 10 mg/kg, po or 1 mg/kg, iv measured after 24 hrs by LC-MS/MS analysis; format: ADME, organism-based; conditions: in vivo
# [5] = Half-life in Sprague-Dawley rat at 10 mg/kg, po or 1 mg/kg, iv measured after 24 hrs by LC-MS/MS analysis; format: ADME, organism-based; conditions: in vivo
# [6] = Dose normalized AUC in Sprague-Dawley rat at 10 mg/kg, po measured after 24 hrs by LC-MS/MS analysis; format: ADME, organism-based; conditions: in vivo
# [7] = Oral bioavailability in Sprague-Dawley rat at 10 mg/kg measured after 24 hrs by LC-MS/MS analysis; format: ADME, organism-based; conditions: in vivo
# [8] = Half-life in Beagle dog at 1 mg/kg, po or 0.1 mg/kg, iv measured after 24 hrs by LC-MS/MS analysis; format: ADME, organism-based, Canis lupus familiaris; conditions: in vivo
# [9] = Equilibrium solubility of compound in DMSO at pH 6.8 by shake flask method; format: physicochemical
# [10] = Metabolic stability in human liver microsomes assessed as intrinsic clearance; format: ADME, Microsome; conditions: read-out: CLH
# [11] = Metabolic stability in mouse liver microsomes assessed as intrinsic clearance; format: ADME, Microsome; conditions: read-out: CLH
# [12] = Clearance in C57BL/6 mouse at 1 mg/kg, iv measured after 24 hrs by LC-MS/MS analysis; format: ADME, organism-based; conditions: in vivo
# [13] = AUC (0 to infinity) in C57BL/6 mouse at 3 mg/kg, po measured after 24 hrs by LC-MS/MS analysis; format: ADME, organism-based; conditions: in vivo
# [14] = biological target: Nuclear factor NF-kappa-B complex (Homo sapiens, UniProt P19838+Q00653+Q04206); test: Inhibition of NF-kappaB in PMA-differentiated human THP-1 cells assessed as reduction in TNF-alpha release preincubated with compound for 1 hrs followed by Pam3CSK4 stimulation and measured after 3 hrs by HTRF assay; format: cell-based
# Chain of Nuclear factor NF-kappa-B complex (P19838 1-433 limits assumed): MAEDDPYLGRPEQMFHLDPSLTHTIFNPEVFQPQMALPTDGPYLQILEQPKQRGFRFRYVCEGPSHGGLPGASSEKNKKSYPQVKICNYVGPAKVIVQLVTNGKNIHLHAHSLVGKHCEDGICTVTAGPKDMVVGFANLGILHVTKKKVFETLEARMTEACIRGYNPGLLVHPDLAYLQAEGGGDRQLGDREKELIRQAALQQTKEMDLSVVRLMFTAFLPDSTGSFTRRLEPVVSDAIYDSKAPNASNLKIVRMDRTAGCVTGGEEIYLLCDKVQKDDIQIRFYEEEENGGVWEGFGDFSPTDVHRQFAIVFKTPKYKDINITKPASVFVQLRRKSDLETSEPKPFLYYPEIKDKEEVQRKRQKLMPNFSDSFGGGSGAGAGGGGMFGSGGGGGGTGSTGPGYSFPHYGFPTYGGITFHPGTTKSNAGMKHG
# Chain of Nuclear factor NF-kappa-B complex (Q00653 1-454 limits assumed): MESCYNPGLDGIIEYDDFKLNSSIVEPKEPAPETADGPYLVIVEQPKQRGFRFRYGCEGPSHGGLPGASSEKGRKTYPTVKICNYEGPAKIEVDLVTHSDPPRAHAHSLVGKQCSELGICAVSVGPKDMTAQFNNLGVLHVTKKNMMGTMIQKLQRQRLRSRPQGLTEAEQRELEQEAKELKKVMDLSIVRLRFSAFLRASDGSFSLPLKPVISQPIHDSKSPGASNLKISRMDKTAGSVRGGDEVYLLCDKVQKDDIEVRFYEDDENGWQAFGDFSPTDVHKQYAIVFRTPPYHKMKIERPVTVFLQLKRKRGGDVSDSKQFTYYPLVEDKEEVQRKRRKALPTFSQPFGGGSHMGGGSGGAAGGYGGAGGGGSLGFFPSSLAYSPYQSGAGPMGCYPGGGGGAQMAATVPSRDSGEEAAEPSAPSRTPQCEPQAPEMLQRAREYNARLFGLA
# Chain of Nuclear factor NF-kappa-B complex (Q04206 whole entry): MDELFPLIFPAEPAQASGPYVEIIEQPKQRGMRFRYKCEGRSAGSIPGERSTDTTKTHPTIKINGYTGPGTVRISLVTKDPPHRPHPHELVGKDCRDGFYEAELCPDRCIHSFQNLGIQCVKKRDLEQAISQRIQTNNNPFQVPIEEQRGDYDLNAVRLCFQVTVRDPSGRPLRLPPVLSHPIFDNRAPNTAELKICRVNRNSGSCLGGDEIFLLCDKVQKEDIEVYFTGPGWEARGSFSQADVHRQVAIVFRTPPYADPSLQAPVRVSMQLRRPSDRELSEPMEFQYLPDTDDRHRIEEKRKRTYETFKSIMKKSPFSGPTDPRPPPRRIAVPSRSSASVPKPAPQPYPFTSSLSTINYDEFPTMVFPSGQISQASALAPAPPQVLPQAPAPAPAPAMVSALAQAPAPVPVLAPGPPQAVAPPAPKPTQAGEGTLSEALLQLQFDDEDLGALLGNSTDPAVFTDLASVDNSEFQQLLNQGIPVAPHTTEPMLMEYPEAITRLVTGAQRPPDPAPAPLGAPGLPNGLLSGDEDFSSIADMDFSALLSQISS
# [15] = biological target: Voltage-gated inwardly rectifying potassium channel KCNH2 (Homo sapiens, UniProt Q12809); test: Displacement of [3H]-dofetilide from human ERG; format: toxicity
# Chain of Voltage-gated inwardly rectifying potassium channel KCNH2 (Q12809 whole entry): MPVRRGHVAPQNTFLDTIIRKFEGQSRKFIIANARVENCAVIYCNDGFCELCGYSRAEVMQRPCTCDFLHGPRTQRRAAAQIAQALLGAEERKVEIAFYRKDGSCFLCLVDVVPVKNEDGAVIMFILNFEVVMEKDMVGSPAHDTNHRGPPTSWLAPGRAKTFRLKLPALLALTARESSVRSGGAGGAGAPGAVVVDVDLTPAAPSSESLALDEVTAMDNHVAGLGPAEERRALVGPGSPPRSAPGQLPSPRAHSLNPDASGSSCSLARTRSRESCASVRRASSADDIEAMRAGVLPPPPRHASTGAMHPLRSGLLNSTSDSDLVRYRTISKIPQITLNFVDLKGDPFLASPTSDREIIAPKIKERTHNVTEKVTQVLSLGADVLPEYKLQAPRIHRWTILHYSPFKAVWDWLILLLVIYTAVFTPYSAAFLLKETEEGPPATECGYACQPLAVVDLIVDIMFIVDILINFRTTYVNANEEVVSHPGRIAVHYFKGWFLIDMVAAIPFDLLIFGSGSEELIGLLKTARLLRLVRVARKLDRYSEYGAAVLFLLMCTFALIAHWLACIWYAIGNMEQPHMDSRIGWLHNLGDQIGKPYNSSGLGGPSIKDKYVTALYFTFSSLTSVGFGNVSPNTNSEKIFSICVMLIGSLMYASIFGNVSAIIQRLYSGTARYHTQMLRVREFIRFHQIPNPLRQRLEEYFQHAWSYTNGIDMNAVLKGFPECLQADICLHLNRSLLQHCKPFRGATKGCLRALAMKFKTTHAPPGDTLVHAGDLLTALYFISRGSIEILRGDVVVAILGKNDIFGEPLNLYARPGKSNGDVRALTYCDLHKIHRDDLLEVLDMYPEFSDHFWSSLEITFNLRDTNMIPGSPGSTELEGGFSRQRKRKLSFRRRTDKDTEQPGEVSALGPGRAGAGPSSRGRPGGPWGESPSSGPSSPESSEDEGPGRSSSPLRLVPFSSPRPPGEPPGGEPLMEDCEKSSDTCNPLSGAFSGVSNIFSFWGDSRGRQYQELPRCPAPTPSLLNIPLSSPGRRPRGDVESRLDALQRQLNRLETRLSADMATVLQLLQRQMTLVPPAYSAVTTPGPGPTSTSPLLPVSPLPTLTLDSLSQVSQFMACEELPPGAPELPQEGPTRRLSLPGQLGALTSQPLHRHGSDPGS
# [16] = In vivo inhibition of NLRP3 in LPS/ATP-induced C57BL/6 mouse model of acute peritonitis assessed as reduction in IL-1beta level at 100 mg/kg, po preadministered with compound for 1 hrs followed by LPS stimulation for 2 hrs and measured 15 mins after ATP addition by ELISA relative to control; format: functional; conditions: time 3.25 hrs
# [17] = In vivo inhibition of NLRP3 in LPS/ATP-induced C57BL/6 mouse model of acute peritonitis assessed as reduction in IL-1beta level at 30 mg/kg, po preadministered with compound for 1 hrs followed by LPS stimulation for 2 hrs and measured 15 mins after ATP addition by ELISA relative to control; format: functional; conditions: time 3.25 hrs
# [18] = In vivo inhibition of NLRP3 in LPS/ATP-induced C57BL/6 mouse model of acute peritonitis assessed as reduction in IL-1beta level at 10 mg/kg, po preadministered with compound for 1 hrs followed by LPS stimulation for 2 hrs and measured 15 mins after ATP addition by ELISA relative to control; format: functional; conditions: time 3.25 hrs
# [19] = In vivo inhibition of NLRP3 in LPS/ATP-induced C57BL/6 mouse model of acute peritonitis assessed as reduction in IL-1beta level at 3 mg/kg, po preadministered with compound for 1 hrs followed by LPS stimulation for 2 hrs and measured 15 mins after ATP addition by ELISA relative to control; format: functional; conditions: time 3.25 hrs
# [20] = Drug concentration in blood of C57BL/6 mouse model of acute peritonitis at 100 mg/kg, po preadministered with compound for 1 hrs followed by LPS stimulation for 2 hrs and measured 15 mins after ATP addition by HPLC-MS/MS analysis; format: ADME, organism-based; conditions: whole blood, read-out: Ct
# [21] = Drug concentration in blood of C57BL/6 mouse model of acute peritonitis at 30 mg/kg, po preadministered with compound for 1 hrs followed by LPS stimulation for 2 hrs and measured 15 mins after ATP addition by HPLC-MS/MS analysis; format: ADME, organism-based; conditions: whole blood, read-out: Ct
# [22] = Drug concentration in blood of C57BL/6 mouse model of acute peritonitis at 10 mg/kg, po preadministered with compound for 1 hrs followed by LPS stimulation for 2 hrs and measured 15 mins after ATP addition by HPLC-MS/MS analysis; format: ADME, organism-based; conditions: whole blood, read-out: Ct
# [23] = In vivo inhibition of NLRP3 in LPS/ATP-induced C57BL/6 mouse model of acute peritonitis assessed as reduction in IL-1beta level at 50 mg/kg, po preadministered with compound for 1 hrs followed by LPS stimulation for 2 hrs and measured 15 mins after ATP addition by ELISA relative to control; format: functional; conditions: time 3.25 hrs
# [24] = Drug concentration in blood of C57BL/6 mouse model of acute peritonitis at 50 mg/kg, po preadministered with compound for 1 hrs followed by LPS stimulation for 2 hrs and measured 15 mins after ATP addition by HPLC-MS/MS analysis; format: ADME, organism-based; conditions: whole blood, read-out: Ct
# [25] = Thermodynamic solubility of compound at pH 6.8; format: physicochemical; conditions: buffer, read-out: Therm_solubility
# Cytochrome P450 2D6 = Cytochrome P450 2D6 (Homo sapiens, UniProt P10635); test: Inhibition of CYP2D6 (unknown origin); format: ADME
# Chain of Cytochrome P450 2D6 (P10635 whole entry): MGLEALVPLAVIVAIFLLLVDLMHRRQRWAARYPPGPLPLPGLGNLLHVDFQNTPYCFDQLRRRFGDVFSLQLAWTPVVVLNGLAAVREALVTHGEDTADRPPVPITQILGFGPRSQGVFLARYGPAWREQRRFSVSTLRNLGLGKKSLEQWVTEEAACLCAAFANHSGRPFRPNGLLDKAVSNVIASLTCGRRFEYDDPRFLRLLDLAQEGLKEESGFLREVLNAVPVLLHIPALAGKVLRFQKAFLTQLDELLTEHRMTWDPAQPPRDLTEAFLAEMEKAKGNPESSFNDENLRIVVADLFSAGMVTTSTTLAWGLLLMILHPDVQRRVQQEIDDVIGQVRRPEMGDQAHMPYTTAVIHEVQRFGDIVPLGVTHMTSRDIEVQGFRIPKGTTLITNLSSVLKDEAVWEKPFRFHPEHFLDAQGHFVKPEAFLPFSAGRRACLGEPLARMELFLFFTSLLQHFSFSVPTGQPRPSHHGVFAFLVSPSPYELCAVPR
# Cytochrome P450 2C9 = Cytochrome P450 2C9 (Homo sapiens, UniProt P11712); test: Inhibition of CYP2C9 (unknown origin); format: ADME
# Chain of Cytochrome P450 2C9 (P11712 whole entry): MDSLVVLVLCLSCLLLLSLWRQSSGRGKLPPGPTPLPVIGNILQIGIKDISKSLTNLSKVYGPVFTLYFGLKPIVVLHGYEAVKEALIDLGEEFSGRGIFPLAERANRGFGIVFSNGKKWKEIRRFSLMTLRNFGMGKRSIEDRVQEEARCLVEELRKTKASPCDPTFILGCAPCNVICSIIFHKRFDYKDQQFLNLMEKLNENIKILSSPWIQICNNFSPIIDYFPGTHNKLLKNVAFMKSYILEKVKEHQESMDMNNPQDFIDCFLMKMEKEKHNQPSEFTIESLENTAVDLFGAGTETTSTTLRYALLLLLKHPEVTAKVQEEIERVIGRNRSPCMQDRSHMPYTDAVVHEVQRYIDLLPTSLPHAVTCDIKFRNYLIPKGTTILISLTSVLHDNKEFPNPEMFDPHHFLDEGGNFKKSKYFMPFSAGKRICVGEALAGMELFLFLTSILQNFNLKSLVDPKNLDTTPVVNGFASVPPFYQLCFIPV
# [26] = biological target: Synaptic vesicular amine transporter (Homo sapiens, UniProt Q05940); test: Inhibition of VMAT-2 (unknown origin)
# Chain of Synaptic vesicular amine transporter (Q05940 whole entry): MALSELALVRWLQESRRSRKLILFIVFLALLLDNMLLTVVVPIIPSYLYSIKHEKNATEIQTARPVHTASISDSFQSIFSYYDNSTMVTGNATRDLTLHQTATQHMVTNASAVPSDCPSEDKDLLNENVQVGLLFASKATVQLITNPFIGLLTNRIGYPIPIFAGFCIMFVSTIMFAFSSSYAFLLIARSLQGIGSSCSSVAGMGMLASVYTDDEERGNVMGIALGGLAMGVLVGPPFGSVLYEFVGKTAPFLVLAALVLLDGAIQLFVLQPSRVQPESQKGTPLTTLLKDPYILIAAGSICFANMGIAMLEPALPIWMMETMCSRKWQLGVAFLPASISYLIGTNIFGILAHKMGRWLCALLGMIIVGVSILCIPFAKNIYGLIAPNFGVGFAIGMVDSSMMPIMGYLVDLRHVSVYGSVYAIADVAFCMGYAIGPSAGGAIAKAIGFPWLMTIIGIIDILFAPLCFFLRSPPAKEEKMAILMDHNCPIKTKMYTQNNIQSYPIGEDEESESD
# [27] = Drug metabolism in rat liver microsomes assessed as N-demethylation of piperidine ring mediated metabolite formation; format: ADME, Microsome
# [28] = Drug metabolism in dog liver microsomes assessed as N-demethylation of piperidine ring mediated metabolite formation; format: ADME, Canis lupus familiaris, Microsome
# [29] = Drug metabolism in human liver microsomes assessed as N-demethylation of piperidine ring mediated metabolite formation; format: ADME, Microsome
# [30] = Drug metabolism in rat liver microsome assessed as thiophene oxidation mediated metabolite formation; format: ADME; conditions: microsomes
# [31] = Clearance in mouse liver microsomes; format: ADME, Microsome; conditions: read-out: CLH
# [32] = Clearance in rat liver microsomes; format: ADME, Microsome; conditions: read-out: CLH
# [33] = Clearance in dog liver microsomes; format: ADME, Canis lupus familiaris, Microsome; conditions: read-out: CLH
# [34] = Protein binding in rat plasma; format: ADME, cell-free; conditions: read-out: PPB (converted)
# [35] = Protein binding in dog plasma; format: ADME, cell-free, Canis lupus familiaris; conditions: read-out: PPB (converted)
# [36] = Protein binding in human plasma; format: ADME, cell-free; conditions: read-out: PPB (converted)
# [37] = Clearance in C57BL/6 mouse assessed as hepatic blood flow at 3 mg/kg, po or 1 mg/kg, iv measured after 24 hrs by LC-MS/MS analysis; format: ADME, organism-based, Liver; conditions: in vivo
# [38] = Clearance in Sprague-Dawley rat assessed as hepatic blood flow at 10 mg/kg, po or 1 mg/kg, iv measured after 24 hrs by LC-MS/MS analysis; format: ADME, organism-based, Liver; conditions: in vivo
# [39] = Clearance in Beagle dog assessed as hepatic blood flow at 1 mg/kg, po or 0.1 mg/kg, iv measured after 24 hrs by LC-MS/MS analysis; format: ADME, organism-based, Canis lupus familiaris, Liver; conditions: in vivo
structure (smiles),measurement,setting,value
CN1CCC[C@@H](NC(=O)Cn2nc(C(C)(C)O)n3c(cc4sc(Cl)cc43)c2=O)C1,Vdss,[1],3.9 L/kg
same,AUC/dose,[2],235 nmol·h/L
same,bioavailability,[3],36%
same,Vdss,[4],5.5 L/kg
same,half-life,[5],210 min
same,AUC/dose,[6],712 nmol·h/L
same,bioavailability,[7],63%
same,half-life,[8],342 min
same,solubility,[9],> 1000 µM
same,microsomal CLint,[10],38 µL/min/mg
same,microsomal CLint,[11],103 µL/min/mg
same,clearance,[12],58 mL/min/kg
same,AUC(0-inf),[13],0.718 µM·h
same,IC50,[14],> 100 µM
same,IC50,[15],> 30 µM
same,inhibition in vivo at 100 mg/kg,[16],98%
same,inhibition in vivo at 30 mg/kg,[17],91%
same,inhibition in vivo at 10 mg/kg,[18],45%
same,inhibition in vivo at 3 mg/kg,[19],34%
same,concentration at 3.25 h,[20],3.67 µM
same,concentration at 3.25 h,[21],1060 nM
same,concentration at 3.25 h,[22],163 nM
same,inhibition in vivo at 50 mg/kg,[23],90%
same,concentration at 3.25 h,[24],1680 nM
same,solubility thermodynamic,[25],159 µg/mL
same,IC50,Cytochrome P450 2D6,> 25 µM
same,IC50,Cytochrome P450 2C9,> 25 µM
same,IC50,[26],6.5 µM
same,Drug metabolism,[27],Metabolite_Detected
same,Drug metabolism,[28],Metabolite_Detected
same,Drug metabolism,[29],Metabolite_Detected
same,Drug metabolism,[30],Metabolite_Notdetected
same,microsomal CLint,[31],103 µL/min/mg
same,microsomal CLint,[32],100 µL/min/mg
same,microsomal CLint,[33],39 µL/min/mg
same,fraction unbound,[34],0.22
same,fraction unbound,[35],0.17
same,fraction unbound,[36],0.15
same,LBF,[37],40%
same,LBF,[38],40%
same,LBF,[39],40%
